One assay addresses T1, Del-N11dTCTP (Rattus norvegicus, UniProt P63029).
T1 construct: made in house
T1 sequence (P63029 11-172 limits assumed): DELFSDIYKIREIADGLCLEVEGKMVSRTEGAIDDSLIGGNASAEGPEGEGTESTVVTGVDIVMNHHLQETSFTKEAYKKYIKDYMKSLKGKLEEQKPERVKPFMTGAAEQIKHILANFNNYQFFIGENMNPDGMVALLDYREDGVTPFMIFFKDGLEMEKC
The assay can be described thus: Inhibition of Del-N11dTCTP-induced IL-8 secretion by domain peptides in BEAS-2B cells. It counts as cell-based. The following applies: Del-N11dTCTP 70 nM, peptide molar ratios 0~1, 24 hours, ELISA. How it is done: To investigate inhibitory effect of FL domain, Helix 2 domain, and Helix 3 domain on Del-N11dTCTP, the inventors synthesized FL domain (Ac-[…]-NH2) (SEQ. ID. NO: 1), Helix 2 domain (Ac-[…]-NH2) (SEQ. ID. NO: 11), and Helix 3 domain (Ac-[…]-NH2) (SEQ. ID. NO: 22) by using the synthetic peptides prepared with NH2-terminal acetylation and COOH-terminal amidation, followed by purification.
Particularly, BEAS-2B cells were treated with Del-N11dTCTP (70 nM) by the same manner as described in Experimental Example 1. At this time, the synthesized FL domain, Helix 2 domain, and Helix 3 domain were treated to the cells at different molar ratios (0˜1), followed by reaction for 30 minutes. Then, Del-N11dTCTP was added thereto. 24 hours later, the supernatant was obtained and the released IL-8 was quantified by ELISA.
(In general: ELISA stands for enzyme-linked immunosorbent assay.)

For assay [1], the system named is asthma and rhinitis animal models induced with ovalbumin. The assay can be described thus: FL and H2 domain peptides in ovalbumin-induced asthma and rhinitis animal models. It counts as in vivo, BALB/c female mice. Particulars: for inflammatory cells in bronchoalveolar lavage fluid (total cell number, leukocyte number) / level of IL-5 in bronchoalveolar lavage fluid: 20 mg/kg intraperitoneal, vs positive control (PBS). As for the experimental part:
Particularly, 5 week old specific pathogen free BALB/c female mice (weight: approximately 20 g) were purchased from Orientbio Inc. (Seoul, Korea), followed by stabilization in an animal laboratory for 1 week. The mice were administered with 200 ? of PBS containing 1.3 mg of aluminum hydroxide (Sigma A8222) and 100 μg of ovalbumin (Sigma A5503) via intraperitoneal injection twice at a week interval, followed by sensitization. Then, 20 ? of PBS containing 200 μg of ovalbumin dissolved therein was administered via intranasal instillation on day 14, day 16, and day 18 to induce immune response. PBS was administered for the positive control and FL and H2 domains and the antisera or antibodies thereof were administered via intraperitoneal injection 10 minutes before antigen administration. On day 15, day 17, and day 19, intraperitoneal administration was performed without antigen administration. On day 19, the animals were sacrificed 2 hours after the administration (FIG. 16). 50 μg of anti-C terminus IgG was administered via intranasal instillation or intraperitoneal injection 30 minutes before the antigen administration on day 14, day 16, and day 18. 24 hours after the last administration, the animals were sacrificed (FIG. 26). The asthma and rhinitis models constructed in Example 7 were treated with FL and H2 domain at the concentration of 20 mg/kg in order to investigate whether or not those two HRF receptor binding domains could suppress pathophysiological lesion of asthma and rhinitis. Particularly, after cardiac blood collection in the animal model constructed in Example 7, bronchoalveolar lavage was performed. The airway was opened and a 20-gauge intravascular tube catheter was inserted through the opened airway, through which 0.8 ml of PBS containing 2% FBS was slowly injected three times and then recovered. The recovery rate was at least 80% and the recovered washing solution was centrifuged at 4° C. for 15 minutes at 1,000×g. The obtained supernatant was used for the detection of cytokine such as IL-5 or for the detection of TCTP protein. In the meantime, the precipitate was resuspended in 100 ? of PBS containing 2% FBS. The number of the inflammatory cells infiltrated in the washing solution was counted by using HEMAVET 950FS (Drew Scientific). Particularly, upon completion of the experiment in Example 7, the mixture of zoletil (250 mg/kg) and rompun (50 mg/kg) was administered to the mouse via intraperitoneal injection to sacrifice the animal. 0.7˜0.8 mL of blood was collected from the heart and placed in a heparinized tube. The blood sample stood at room temperature for 30 minutes˜1 hour, followed by centrifugation at 1,000×g for 15 minutes to obtain plasma. The level of ovalbumin-specific IgE in the plasma was measured by ELISA. 100 μg of ovalbumin was dissolved in 0.05 M carbonate buffer (pH 9.6), which was distributed in a 96-well ELISA plate, followed by coating at 4° C. for overnight. Non-specific reaction was blocked by reacting the plate with TBS containing 1% BSA at room temperature for 30 minutes. The plasma sample was diluted (1:100), followed by reaction at room temperature for 1 hour, which was then washed with TBS containing 0.1% Tween-20. The […] anti-mouse IgE (SouthernBiotech) was diluted (1:8000), followed by reaction at room temperature for 1 hour. Then, the mixture was washed. TMB was treated thereto at room temperature. 10 minutes later, the reaction was terminated by adding 0.2 M H2SO4. Then, OD450 was measured with an ELISA reader. Particularly, bronchoalveolar lavage fluid was collected from the asthma and rhinitis animal models constructed in Example 7. The chest was dissected and the lung was extracted, which was washed with 4° C. PBS. The lung was cut to the appropriate size. Some of the lung pieces were fixed in PBS containing 4% paraformaldehyde (PFA) at room temperature via o/n fixation. […]

Assay [2] shares this test system. The description is as above. Format: in vivo, BALB/c female mice.

Entries after “also recorded” stand apart in the source; their conditions may differ.

The results in this text go back to US11518805B2, “Binding inhibitor between TCTP dimer type IgE-dependent histamine releasing factor and receptor thereof, and use thereof” (EWHA UNIVERSITY—INDUSTRY COLLABORATION FOUNDATION, priority 2014, dated 2022).

As to “Ac-SRTEGAIDDSLIGGNASAEGPEGEGTESTVVT-NH2 [FL domain, ID; NO: 1]”, the “inhibition of IL-8 secretion induced by Del-N11dTCTP” value with Del-N11dTCTP is given as “inhibited IL-8 secretion better than Helix 3 domain; also recorded: inhibited more strongly”. Moreover, in assay [1], the “inflammatory cells in bronchoalveolar lavage fluid (total cell number, leukocyte number)” value was “significantly lower” and the “level of IL-5 in bronchoalveolar lavage fluid” value is reported as “reduced”. Besides, the “level of ovalbumin-specific IgE in plasma” value in assay [1] (20 mg/kg, ELISA, vs positive control) is “reduced”. The “number of total cells and level of lymphocytes in bronchoalveolar lavage fluid” value in assay [1] (20 mg/kg, p<0.01) is listed as “significantly reduced”. In assay [1] (vs positive control), the “level of TCTP dimer (approximately 45 kDa) in bronchoalveolar lavage fluid, immunoblotting” value is given as “reduced” and the “phospho-IκBα in lung tissue, immunoblotting” value was “decreased”. Moreover, the “IL-5 secretion in bronchoalveolar lavage fluid” value in assay [2] (1 mg/kg) is recorded as “could inhibit IL-5 secretion”. The “inflammatory cells infiltrated in bronchoalveolar lavage fluid, dose dependence” value in assay [2] (1 mg/kg and 20 mg/kg) is given as “reduced FL domain dose-dependently”. The “level of ovalbumin-specific IgE in plasma, dose dependence” value in assay [2] (various concentrations (1 and 20 mg/kg)) is “reduced by the treatment of FL domain dose-dependently”.
As for “Ac-TKEAYKKYIKDYMKSLKGKLEEQKP-NH2 [Helix 2 domain, ID; NO: 11]”, in the assay with Del-N11dTCTP, the “inhibition of IL-8 secretion induced by Del-N11dTCTP” value is given as “inhibited IL-8 secretion better than Helix 3 domain; also recorded: inhibited more strongly”. For the same substance, in assay [1], the “inflammatory cells in bronchoalveolar lavage fluid (total cell number, leukocyte number)” value is on record as “decreased” and the “level of IL-5 in bronchoalveolar lavage fluid” value is given as “reduced”.
